Results on 22 compounds are retold here after US10787425B2, “Thiazolidinedione derivative and use thereof” (INDUSTRY-ACADEMIC COOPERATION FOUNDATION CHOSUN UNIVERSITY, priority 2016, dated 2020).

One experiment has as its target 15-PGDH (Homo sapiens (Human), UniProt P15428). The experiment is described as follows: 15-PGDH inhibitory activity (NADH at 340 nm). The experiment is classed as biochemical. Conditions: concentration inhibiting 50% of 15-PGDH activity; purified 15-PGDH, 21 μM PGE2, 0.25 mM NAD+. The gist of the method: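 GST-purified human 15-PGDH (E. coli BL-21 LysS, 10 μg) with 21 μM PGE2 and 0.25 mM NAD+ in 50 mM Tris-HCl pH 7.5, 0.1 mM DTT. Compound tested at 0.0001–64 μM; NADH formation read by absorbance at 340 nm against a standard curve.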

For a further experiment, the system named is A549 cells. The experiment is described as follows: Measurement of PGE2 concentration in A549 cell medium (ELISA). It counts as cell-based, human. Conditions: for Increment %: PGE2 concentration versus PBS control, 5 μM, 12 hours; for PGE2 concentration: inhibitor 5 μM, medium collected after 12 hours, ELISA. The gist of the method: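 A549 cells in RPMI 1640 with 8% FBS, seeded at 5×10^5 cells/well and grown 24 h at 37° C, 5% CO2; at ~80% confluence treated with 15-PGDH inhibitor at 5 μM in PBS (PBS-only negative control). After 12 h, PGE2 in the medium was measured by ELISA against a standard curve.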
On the technique in general: An ELISA detects its analyte on a solid surface through an enzyme-linked reagent.

The next experiment deals with HaCaT cells. The experiment is described as follows: Wound treatment (scratch) assay in HaCaT cells. It counts as cell-based, human. As to conditions: 48 hours. The protocol:
HaCaT cells subcultured for about one week in DMEM [containing+8% FBS, AA] medium were inoculated in a 6-well plate at 2×10^5 cells/mL ([…]). Then, the cells were cultured for about 24 hours until the cells reached 80% confluency. HaCaT cells are an adult human skin-derived and spontaneously […] aneuploid immortal keratinocyte cell line. After the culture, the cells were washed with 1×PBS buffer and the used medium was replaced with an FBS and antibiotic-free medium. Then, mitomycin was added thereto at a concentration of 30 μg/mL and the cells were cultured for 2 hours. Then, the cells were washed with 1×PBS buffer, and a cell monolayer on the bottom surface of each well was scratched by using a 200 μL pipette tip to harm the cells. Since some cells were washed away by the scratching, the plate was washed repeatedly with 1×PBS buffer and then, filled with DMEM medium containing FBS and AA, and photographed at the time of 0 hour.
The 15-PGDH inhibitor was then injected at a concentration of 5 μM or the indicated concentration. For comparison with the results, in the case of the negative control, nothing was added, and in the case of the positive control, TGF-β1 was injected at a concentration of 1 ng/mL and then, the cells were cultured for 48 hours. After 48 hours, the picture of the cells was taken again to confirm how much the cells were grown due to the drug effect.

The mark [1] stands for this setting: 5 μM, versus control (FIGS. 1 to 3).

Chain of 15-PGDH (P15428 whole entry): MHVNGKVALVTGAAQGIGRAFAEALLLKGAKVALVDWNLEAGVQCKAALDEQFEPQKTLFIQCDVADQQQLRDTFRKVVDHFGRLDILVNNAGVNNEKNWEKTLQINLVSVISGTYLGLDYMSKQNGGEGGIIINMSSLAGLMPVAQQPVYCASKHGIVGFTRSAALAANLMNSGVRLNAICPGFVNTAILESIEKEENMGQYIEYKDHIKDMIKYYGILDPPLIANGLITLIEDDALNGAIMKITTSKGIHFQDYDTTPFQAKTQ

What is called IC50 is the concentration that gives 50% inhibition. In the case of `CCOc1cc(/C=C2\SC(=O)NC2=O)ccc1OC(=O)CCCc1ccccc1` [Compound 59, (Z)-4-((2,4-dioxothiazolidin-5-ylidene)methyl)-2-ethoxyphenyl 4-phenylbutanoate], half-maximal inhibition against 15-PGDH (IC50) was put at 43.9 nM. The Increment % in the experiment with A549 cells was found to be 579.34%. In addition, in the experiment with A549 cells, the PGE2 concentration was 1081.055 pg/mL. For the same compound, the wound closure rate entry is reported as “significantly high wound closure rate” in the experiment on HaCaT cells (0.5 μM to 5 μM, versus control (FIGS. 4 to 6)) and “significantly higher wound closure rates than the control” in the experiment on HaCaT cells (setting [1]).
As to `O=C1NC(=O)/C(=C/c2ccc(OC(=O)C3CC3)c(Cl)c2)S1` [Compound 1, (Z)-2-chloro-4-((2,4-dioxothiazolidin-5-ylidene)methyl)phenyl cyclopropanecarboxylate], the midpoint of inhibition against 15-PGDH, the IC50, lay at 2090 nM. In the experiment on A549 cells, the Increment % amounted to 3.47% and the PGE2 concentration was 283.2688 pg/mL. In the experiment with HaCaT cells (setting [1]), the wound closure rate entry was “significantly higher wound closure rates than the control”.
For `O=C(CCCc1ccccc1)Oc1ccc(/C=C2\SC(=O)NC2=O)cc1Cl` [Compound 14, (Z)-2-chloro-4-((2,4-dioxothiazolidin-5-ylidene)methyl)phenyl 4-phenylbutanoate], at 15-PGDH, the concentration for half-maximal inhibition (IC50) amounted to 22 nM. In addition, in the experiment with A549 cells, the Increment % worked out at 389.99% and the PGE2 concentration turned out to be 586.3975 pg/mL. For the same compound, in the experiment with HaCaT cells (setting [1]), the wound closure rate entry is “significantly higher wound closure rates than the control”.
On 15-PGDH, `O=C1NC(=O)/C(=C/c2ccc(OC(=O)C3CCCCC3)c(Br)c2)S1` [Compound 21, (Z)-2-bromo-4-((2,4-dioxothiazolidin-5-ylidene)methyl)phenyl cyclohexanecarboxylate] gave a concentration for half-maximal inhibition (IC50) of 37.6 nM. Besides, in the experiment with A549 cells, the Increment % is given as 62.47% and the PGE2 concentration was determined as 411.1081 pg/mL.
The matching figures for `O=C(CCCCC1CCCCC1)Oc1ccc(/C=C2\SC(=O)NC2=O)c(Cl)c1` [Compound 100, (Z)-3-chloro-4-((2,4-dioxothiazolidin-5-ylidene)methyl)phenyl 5-cyclohexylpentanoate]: 39.4 nM, −3.7411% and 107.4803 pg/mL.
At 15-PGDH, `O=C(CCCC1CCCCC1)Oc1cccc(/C=C2\SC(=O)NC2=O)c1Cl` [Compound 84, (Z)-2-chloro-3-((2,4-dioxothiazolidin-5-ylidene)methyl)phenyl 4-cyclohexylbutanoate] yielded an IC50 of 22.5 nM. In the experiment with A549 cells, the Increment % is on record as 16.67% and the PGE2 concentration worked out at 245.488 pg/mL.
The matching figures for `COc1cc(/C=C2\SC(=O)NC2=O)ccc1OC(=O)CCC1CCCC1` [Compound 35, (Z)-4-((2,4-dioxothiazolidin-5-ylidene)methyl)-2-methoxyphenyl 3-cyclopentylpropanoate]: 23.4 nM, 130.79% and 455.1278 pg/mL.
With `CCOc1cc(/C=C2\SC(=O)NC2=O)ccc1OC(=O)CCCC1CCCCC1` [Compound 54, (Z)-4-((2,4-dioxothiazolidin-5-ylidene)methyl)-2-ethoxyphenyl 4-cyclohexylbutanoate], the IC50 at 15-PGDH worked out at 23.8 nM. In the experiment on A549 cells, the Increment % was determined as 202.57% and the PGE2 concentration came to 828.9774 pg/mL.
On to `CCOc1cc(/C=C2\SC(=O)NC2=O)ccc1OC(=O)CCC1CCCC1` [Compound 50, (Z)-4-((2,4-dioxothiazolidin-5-ylidene)methyl)-2-ethoxyphenyl 3-cyclopentylpropanoate], for which the IC50 against 15-PGDH was 29 nM. Further, in the experiment on A549 cells, the Increment % amounted to 89.67% and the PGE2 concentration worked out at 519.6554 pg/mL.
The matching figures for `COc1cc(/C=C2\SC(=O)NC2=O)ccc1OC(=O)C1CCC1` [Compound 32, (Z)-4-((2,4-dioxothiazolidin-5-ylidene)methyl)-2-methoxyphenyl cyclobutanecarboxylate]: 1120 nM, 60.62% and 316.7495 pg/mL.
For `O=C(CCCC1CCCCC1)Oc1ccc(/C=C2\SC(=O)NC2=O)cc1Br` [Compound 24, (Z)-2-bromo-4-((2,4-dioxothiazolidin-5-ylidene)methyl)phenyl 4-cyclohexylbutanoate] the same measures were 15.4 nM, 299.32% and 1010.425 pg/mL.
`O=C1NC(=O)/C(=C/c2ccc(OC(=O)C3CCCC3)cc2Cl)S1` [Compound 93, (Z)-3-chloro-4-((2,4-dioxothiazolidin-5-ylidene)methyl)phenyl cyclopentanecarboxylate]: the IC50 against 15-PGDH was 71 nM. Besides, in the experiment on A549 cells, the Increment % was found to be 2.9785% and the PGE2 concentration worked out at 114.9832 pg/mL.
`O=C(CCC1CCCC1)Oc1cccc(/C=C2\SC(=O)NC2=O)c1Cl` [Compound 80, (Z)-2-chloro-3-((2,4-dioxothiazolidin-5-ylidene)methyl)phenyl 3-cyclopentylpropanoate] returned an IC50 on 15-PGDH of 34.7 nM. Also, in the experiment with A549 cells, the Increment % came to 97.99% and the PGE2 concentration turned out to be 236.9453 pg/mL.
In the case of `COc1cc(/C=C2\SC(=O)NC2=O)ccc1OC(=O)Cc1ccccc1` [Compound 42, (Z)-4-((2,4-dioxothiazolidin-5-ylidene)methyl)-2-methoxyphenyl 2-phenylacetate], 42.2 nM corresponded to half-maximal inhibition on 15-PGDH (IC50). In the experiment on A549 cells, the Increment % is recorded as 97.64% and the PGE2 concentration turned out to be 400.7345 pg/mL.
For `COc1cc(/C=C2\SC(=O)NC2=O)ccc1OC(=O)C1CC1` [Compound 31, (Z)-4-((2,4-dioxothiazolidin-5-ylidene)methyl)-2-methoxyphenyl cyclopropanecarboxylate] the same measures were 1100 nM, 1.13% and 199.4327 pg/mL.
The compound `O=C(O)c1ccccc1.O=C1NC(=O)/C(=C/c2cccc(OC(=O)c3ccccc3)c2Cl)S1` [Compound 86, (Z)-2-chloro-3-((2,4-dioxothiazolidin-5-ylidene)methyl)phenyl benzoate] displayed a half-inhibitory concentration (IC50) on 15-PGDH of 54.1 nM. Moreover, in the experiment on A549 cells, the Increment % is given as −12.12% and the PGE2 concentration was determined as 184.9103 pg/mL.
For `O=C(CCc1ccccc1)Oc1ccc(/C=C2\SC(=O)NC2=O)cc1Cl` [Compound 13, (Z)-2-chloro-4-((2,4-dioxothiazolidin-5-ylidene)methyl)phenyl 3-phenylpropanoate] the same measures were 41.8 nM, 16.39% and 139.2902 pg/mL.
The matching figures for `O=C1NC(=O)/C(=C/c2ccc(OC(=O)C3CCCCC3)c(Cl)c2)S1` [Compound 6, (Z)-2-chloro-4-((2,4-dioxothiazolidin-5-ylidene)methyl)phenyl cyclohexanecarboxylate]: 137 nM, 27.71% and 349.6304 pg/mL.
On to `O=C(CCCCC1CCCCC1)Oc1ccc(/C=C2\SC(=O)NC2=O)cc1Br` [Compound 25, (Z)-2-bromo-4-((2,4-dioxothiazolidin-5-ylidene)methyl)phenyl 5-cyclohexylpentanoate], for which, on 15-PGDH, the half-maximal inhibitory concentration (IC50) is 26.3 nM. In the experiment on A549 cells, the Increment % is 5.34% and the PGE2 concentration is 266.5484 pg/mL.
For `O=C1NC(=O)/C(=C/c2ccc(OC(=O)C3CCC3)c(Cl)c2)S1` [Compound 2, (Z)-2-chloro-4-((2,4-dioxothiazolidin-5-ylidene)methyl)phenyl cyclobutanecarboxylate] the same measures were 782 nM, 9.96% and 301.0364 pg/mL.
For `CCOc1cc(/C=C2\SC(=O)NC2=O)ccc1OC(=O)C1CC1` [Compound 46, (Z)-4-((2,4-dioxothiazolidin-5-ylidene)methyl)-2-ethoxyphenyl cyclopropanecarboxylate] the same measures were 2170 nM, 1.78% and 278.8555 pg/mL.
For `COc1cc(/C=C2\SC(=O)NC2=O)ccc1OC(=O)C1CCCC1` [Compound 33, (Z)-4-((2,4-dioxothiazolidin-5-ylidene)methyl)-2-methoxyphenyl cyclopentanecarboxylate] the same measures were 494 nM, −2.32% and 192.6292 pg/mL.
